These results are taken from patent publication US20260159511A1, “SMALL MOLECULE STING ANTAGONISTS” (CURADEV PHARMA PVT. LTD., priority 2021, published 2026).

The term pIC50 denotes −log10 of the IC50, conventionally taken in molar units.

pIC50: −log10 of the molar value. Read-outs that look alike come from different tables or passages of the source.

This assay has as its system IRF pathway in THP1-Dual™ cells, THP-1 (HAQ). In words: Reporter gene expression assay in THP-1 cells (THP1-Dual, IRF pathway Lucia luciferase reporter, 2′,3′-cGAMP stimulation). In kind it is cell-based, human. Particulars: read-out: THP-1 (HAQ) Activity (IC50 value range). On the procedure:
Reporter Gene Expression Assay in THP-1 Cells
THP1-Dual™ cells (Invivogen) were derived from the human THP-1 monocyte cell line by stable integration of two inducible reporter constructs. As a result, THP1-Dual™ cells allow the simultaneous study of the IRF pathway, by assessing the activity of a secreted luciferase (Lucia) and the NF-κB pathway, by monitoring the activity of secreted SEAP. 5×10^4 THP1-Dual™ cells were seeded in 384-well plates in growth medium and preincubated with novel compounds for 10 minutes followed by stimulation with 5 μM 2′,3′-cGAMP. After 20 hr of stimulation the supernatant was removed and the IRF pathway reporter protein was readily measured in the cell culture supernatant using QUANTI-Luc™ (Invivogen), a luciferase detection reagent on a Spectramax i3X luminometer.
Background: Reporter assays use an easily measured gene product as a stand-in for the process of interest.

The mark [1] stands for this setting: Homo sapiens, THP1-Dual cells preincubated with compound 10 minutes, stimulation with 5 μM 2′,3′-cGAMP for 20 hr, QUANTI-Luc readout of the supernatant.
Setting [2] is: THP1-Dual cells preincubated with compound 10 minutes, stimulation with 5 μM 2′,3′-cGAMP for 20 hr, QUANTI-Luc readout of the supernatant.

For the compound `O=C(Nc1ccc2c(c1)N(Cc1c(F)ccc(O)c1Cl)C(=O)CS2)Nc1c[nH]c2ccccc12` [Example 34, 1-(4-(2-chloro-6-fluoro-3-hydroxybenzyl)-3-oxo-3,4-dihydro-2H-benzo[b][1,4]thiazin-6-yl)-3-(1H-indol-3-yl)urea], the negative-log IC50 (pIC50) under setting [1] was more than 6.00.

With `CC1Sc2ccc(NC(=O)Nc3c[nH]c4ccccc34)cc2N(Cc2ccccc2)C1=O` (centres unmarked) [Example 35, 1-(4-benzyl-2-methyl-3-oxo-3,4-dihydro-2H-benzo[b][1,4]thiazin-6-yl)-3-(1H-indol-3-yl)urea], the pIC50 under setting [2] is more than 6.00.

Turning to `CC1Sc2ccc(NC(=O)Nc3c[nH]c4ccccc34)cc2N(Cc2ccccc2)C1=O` (centres unmarked) [Example 36, 1-(4-benzyl-2-methyl-3-oxo-3,4-dihydro-2H-benzo[b][1,4]thiazin-6-yl)-3-(1H-indol-3-yl)urea], the pIC50 under setting [2] is more than 6.00.

In the case of `N#Cc1ccc2[nH]cc(NC(=O)Nc3ccc4c(c3)N(Cc3ccccc3)C(=O)CS4)c2c1` [Example 37, 1-(4-benzyl-3-oxo-3,4-dihydro-2H-benzo[b][1,4]thiazin-6-yl)-3-(5-cyano-1H-indol-3-yl)urea], under setting [1], the pIC50 is more than 6.00.

Turning to `O=C(Nc1ccc2c(c1)N(Cc1ccccc1)C(=O)CS2)Nc1c[nH]c2ccc(-c3ccn[nH]3)cc12` [Example 38, 1-(5-(1H-Pyrazol-5-yl)-1H-indol-3-yl)-3-(4-benzyl-3-oxo-3,4-dihydro-2H-benzo[b][1,4]thiazin-6-yl)urea], the pIC50 (Homo sapiens) is 5.00 to 6.00.

Turning to `O=C(Nc1ccc2c(c1)N(Cc1ccccc1)C(=O)CS2)Nc1c[nH]c2ccc(-c3cnco3)cc12` [Example 39, 1-(4-benzyl-3-oxo-3,4-dihydro-2H-benzo[b][1,4]thiazin-6-yl)-3-(5-(oxazol-5-yl)-1H-indol-3-yl)urea], the pIC50 under setting [1] is more than 6.00.

As to `O=C(Nc1ccc2c(c1)N(Cc1ccccc1)C(=O)CS2)Nc1c[nH]c2ccc(-c3cc(F)cc(F)c3)cc12` [Example 40, 1-(4-benzyl-3-oxo-3,4-dihydro-2H-benzo[b][1,4]thiazin-6-yl)-3-(5-(3,5-difluorophenyl)-1H-indol-3-yl)urea], the pIC50 under setting [1] was more than 6.00.

For `Cc1ncc(-c2ccc3[nH]cc(NC(=O)Nc4ccc5c(c4)N(Cc4ccccc4)C(=O)CS5)c3c2)o1` [Example 41, 1-(4-benzyl-3-oxo-3,4-dihydro-2H-benzo[b][1,4]thiazin-6-yl)-3-(5-(2-methyloxazol-5-yl)-1H-indol-3-yl)urea], under setting [1], the pIC50 is 5.00 to 6.00.

Turning to `O=C(Nc1ccc2c(c1)N(Cc1ccccc1)C(=O)CS2)Nc1c[nH]c2ccc(-c3cnsc3)cc12` [Example 42, 1-(4-benzyl-3-oxo-3,4-dihydro-2H-benzo[b][1,4]thiazin-6-yl)-3-(5-(isothiazol-4-yl)-1H-indol-3-yl)urea], the pIC50 under setting [1] was more than 6.00.

Consider `O=C(Nc1ccc2c(c1)N(Cc1ccccc1)C(=O)CS2)Nc1c[nH]c2ccc(-c3cccc(CO)c3)cc12` [Example 43, 1-(4-benzyl-3-oxo-3,4-dihydro-2H-benzo[b][1,4]thiazin-6-yl)-3-(5-(3-(hydroxymethyl)phenyl)-1H-indol-3-yl)urea], for which, under setting [1], the pIC50 is more than 6.00.

As to `O=C(Nc1ccc2c(c1)N(Cc1ccccc1)C(=O)CS2)Nc1c[nH]c2ccc(-c3cn[nH]c3)cc12` [Example 44, 1-(5-(1H-pyrazol-4-yl)-1H-indol-3-yl)-3-(4-benzyl-3-oxo-3,4-dihydro-2H-benzo[b][1,4]thiazin-6-yl)urea], the pIC50 under setting [1] is 5.00 to 6.00.

On to `N#Cc1cccc(-c2ccc3[nH]cc(NC(=O)Nc4ccc5c(c4)N(Cc4ccccc4)C(=O)CS5)c3c2)c1` [Example 45, 1-(4-benzyl-3-oxo-3,4-dihydro-2H-benzo[b][1,4]thiazin-6-yl)-3-(5-(3-cyanophenyl)-1H-indol-3-yl)urea], for which, under setting [1], the pIC50 is more than 6.00.

As to `O=C(Nc1ccc2c(c1)N(Cc1ccccc1)C(=O)CS2)Nc1c[nH]c2ccc(-c3cnn(CCO)c3)cc12` [Example 46, 1-(4-benzyl-3-oxo-3,4-dihydro-2H-benzo[b][1,4]thiazin-6-yl)-3-(5-(1-(2-hydroxyethyl)-1H-pyrazol-4-yl)-1H-indol-3-yl)urea], under setting [1], the pIC50 was 5.00 to 6.00.

For `CCn1cc(-c2ccc3[nH]cc(NC(=O)Nc4ccc5c(c4)N(Cc4ccccc4)C(=O)CS5)c3c2)cn1` [Example 47, 1-(4-benzyl-3-oxo-3,4-dihydro-2H-benzo[b][1,4]thiazin-6-yl)-3-(5-(1-ethyl-1H-pyrazol-4-yl)-1H-indol-3-yl)urea], the pIC50 under setting [1] is more than 6.00.

As for `NC(=O)c1cccc(-c2ccc3[nH]cc(NC(=O)Nc4ccc5c(c4)N(Cc4ccccc4)C(=O)CS5)c3c2)c1` [Example 48, 3-(3-(3-(4-benzyl-3-oxo-3,4-dihydro-2H-benzo[b][1,4]thiazin-6-yl)ureido)-1H-indol-5-yl)benzamide], under setting [1], the pIC50 was 5.00 to 6.00.

On to `COCCn1cc(-c2ccc3[nH]cc(NC(=O)Nc4ccc5c(c4)N(Cc4ccccc4)C(=O)CS5)c3c2)cn1` [Example 49, 1-(4-benzyl-3-oxo-3,4-dihydro-2H-benzo[b][1,4]thiazin-6-yl)-3-(5-(1-(2-methoxyethyl)-1H-pyrazol-4-yl)-1H-indol-3-yl)urea], for which the negative logarithm of the IC50 (pIC50) under setting [1] is 5.00 to 6.00.

On to `O=C(Nc1ccc2c(c1)N(Cc1ccccc1)C(=O)CS2)Nc1c[nH]c2ccc(-c3cnn(C(F)F)c3)cc12` [Example 50, 1-(4-benzyl-3-oxo-3,4-dihydro-2H-benzo[b][1,4]thiazin-6-yl)-3-(5-(1-(difluoromethyl)-1H-pyrazol-4-yl)-1H-indol-3-yl)urea], for which, under setting [1], the pIC50 is more than 6.00.

Consider `O=C(Nc1ccc2c(c1)N(Cc1ccccc1)C(=O)CS2)Nc1c[nH]c2ccc(-c3ccncc3)cc12` [Example 51, 1-(4-benzyl-3-oxo-3,4-dihydro-2H-benzo[b][1,4]thiazin-6-yl)-3-(5-(pyridin-4-yl)-1H-indol-3-yl)urea], for which the pIC50 under setting [1] was more than 6.00.

`N#CCCn1cc(-c2ccc3[nH]cc(NC(=O)Nc4ccc5c(c4)N(Cc4ccccc4)C(=O)CS5)c3c2)cn1` [Example 52, 1-(4-benzyl-3-oxo-3,4-dihydro-2H-benzo[b][1,4]thiazin-6-yl)-3-(5-(1-(2-cyanoethyl)-1H-pyrazol-4-yl)-1H-indol-3-yl)urea]: under setting [1], the negative-log IC50 (pIC50) was 5.00 to 6.00.

Consider `COc1cccc(-c2ccc3[nH]cc(NC(=O)Nc4ccc5c(c4)N(Cc4ccccc4)C(=O)CS5)c3c2)c1` [Example 53, 1-(4-benzyl-3-oxo-3,4-dihydro-2H-benzo[b][1,4]thiazin-6-yl)-3-(5-(3-methoxyphenyl)-1H-indol-3-yl)urea], for which, under setting [1], the pIC50 was more than 6.00.

Consider `CS(=O)(=O)c1cccc(-c2ccc3[nH]cc(NC(=O)Nc4ccc5c(c4)N(Cc4ccccc4)C(=O)CS5)c3c2)c1` [Example 54, 1-(4-benzyl-3-oxo-3,4-dihydro-2H-benzo[b][1,4]thiazin-6-yl)-3-(5-(3-(methylsulfonyl)phenyl)-1H-indol-3-yl)urea], for which the pIC50 under setting [1] was 5.00 to 6.00.

As for `O=C(Nc1ccc2c(c1)N(Cc1ccccc1)C(=O)CS2)Nc1c[nH]c2ccc(-c3cccnc3)cc12` [Example 55, 1-(4-benzyl-3-oxo-3,4-dihydro-2H-benzo[b][1,4]thiazin-6-yl)-3-(5-(pyridin-3-yl)-1H-indol-3-yl)urea], the pIC50 under setting [1] was more than 6.00.

Turning to `O=C(Nc1ccc2c(c1)N(Cc1ccccc1)C(=O)CS2)Nc1c[nH]c2ccc(-c3cncnc3)cc12` [Example 56, 1-(4-benzyl-3-oxo-3,4-dihydro-2H-benzo[b][1,4]thiazin-6-yl)-3-(5-(pyrimidin-5-yl)-1H-indol-3-yl)urea], the pIC50 under setting [1] was more than 6.00.

With `O=C(Nc1ccc2c(c1)N(Cc1ccccc1)C(=O)CS2)Nc1c[nH]c2ccc(-c3cncc(Cl)c3)cc12` [Example 57, 1-(4-benzyl-3-oxo-3,4-dihydro-2H-benzo[b][1,4]thiazin-6-yl)-3-(5-(5-chloropyridin-3-yl)-1H-indol-3-yl)urea], the pIC50 under setting [1] is more than 6.00.

`O=C(Nc1ccc2c(c1)N(Cc1ccccc1)C(=O)CS2)Nc1c[nH]c2ccc(-c3cccc(OC(F)(F)F)c3)cc12` [Example 58, 1-(4-benzyl-3-oxo-3,4-dihydro-2H-benzo[b][1,4]thiazin-6-yl)-3-(5-(3-(trifluoromethoxy)phenyl)-1H-indol-3-yl)urea]: under setting [1], the pIC50 was more than 6.00.

`CC(C)n1cc(-c2ccc3[nH]cc(NC(=O)Nc4ccc5c(c4)N(Cc4ccccc4)C(=O)CS5)c3c2)cn1` [Example 59, 1-(4-benzyl-3-oxo-3,4-dihydro-2H-benzo[b][1,4]thiazin-6-yl)-3-(5-(1-isopropyl-1H-pyrazol-4-yl)-1H-indol-3-yl)urea]: the pIC50 under setting [1] is more than 6.00.

As for `O=C(Nc1ccc2c(c1)N(Cc1ccccc1)C(=O)CS2)Nc1c[nH]c2ccc(-c3cnn(CC4CC4)c3)cc12` [Example 60, 1-(4-benzyl-3-oxo-3,4-dihydro-2H-benzo[b][1,4]thiazin-6-yl)-3-(5-(1-(cyclopropylmethyl)-1H-pyrazol-4-yl)-1H-indol-3-yl)urea], the pIC50 under setting [1] is more than 6.00.

With `O=C(Nc1ccc2c(c1)N(Cc1ccccc1)C(=O)CS2)Nc1c[nH]c2ccc(-c3cncc(CO)c3)cc12` [Example 61, 1-(4-benzyl-3-oxo-3,4-dihydro-2H-benzo[b][1,4]thiazin-6-yl)-3-(5-(5-(hydroxymethyl)pyridin-3-yl)-1H-indol-3-yl)urea], under setting [1], the pIC50 was 5.00 to 6.00.

As to `O=C1Cc2ccc(-c3ccc4[nH]cc(NC(=O)Nc5ccc6c(c5)N(Cc5ccccc5)C(=O)CS6)c4c3)cc2N1` [Example 62, 1-(4-benzyl-3-oxo-3,4-dihydro-2H-benzo[b][1,4]thiazin-6-yl)-3-(5-(2-oxoindolin-6-yl)-1H-indol-3-yl)urea], under setting [1], the pIC50 was more than 6.00.
